Test systems include SNB-19; Hs-578T; HT-29; OVCAR-8; SK-MEL-5; RXF 393; UO-31; RPMI-8226; T47D; HCT-116; NCI-H23; PC-3; IGROV-1; NCI-H460; HOP-92; K562; MDA-MB-435; HL-60; OVCAR-5.
What all share (assay): NCI anticancer screen, dose series, 48 h

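How tested: cells in 96-well plates exposed to compound for 48 hours at five concentrations. GI50 = concentration required for 50% inhibition of growth.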 Calls of active or inactive are those of the source. No stated cut-off is given here; in the data, active = GI50 up to about 1.1 µM and inactive = higher.

As for `COC(=O)C1(Cc2ccccc2C)Cc2ccc(C)cc2C1=O` (stereo unspecified), the GI50 with SNB-19 was 64.6 µM (inactive); with Hs-578T, 33.2 µM (inactive); with HT-29, 16.7 µM (inactive); in the assay with OVCAR-8, 47.9 µM (inactive); with SK-MEL-5 it was 16.9 µM (inactive); in the assay with RXF 393 it was 28.6 µM (inactive). Moreover, the GI50 was 36.6 µM (inactive) with UO-31; 17 µM (inactive) in the assay with RPMI-8226; 22.8 µM (inactive) in the assay with T47D; 27.2 µM (inactive) in the assay with HCT-116; 26.4 µM (inactive) in the assay on NCI-H23; 25.7 µM (inactive) in the assay on PC-3. Also, the GI50 was 70.5 µM (inactive) in the assay with IGROV-1; 30.8 µM (inactive) in the assay with NCI-H460; 21.6 µM (inactive) in the assay on HOP-92; 42.2 µM (inactive) in the assay with K562; 32.3 µM (inactive) with MDA-MB-435; 15.6 µM (inactive) in the assay on HL-60. Further, the GI50 in the assay on OVCAR-5 is 89.7 µM (inactive).
For the compound `COc1ccc2c(c1)/C(=C\c1c(Cl)[nH]c3cc(C)c(OC)cc13)C(=O)N2`, the GI50 with SNB-19 was 1.39 µM (inactive); with Hs-578T, 0.667 µM (active); in the assay with HT-29 it was 0.889 µM (active); with OVCAR-8, 1.96 µM (inactive); in the assay on SK-MEL-5, 0.69 µM (active); in the assay with RXF 393 it was 0.891 µM (active). For the same compound, the GI50 in the assay on UO-31 was 3.13 µM (inactive); in the assay on RPMI-8226 it was 0.942 µM (active); with T47D, 12.9 µM (inactive); in the assay with HCT-116, 0.979 µM (active); in the assay on NCI-H23, 0.593 µM (active); in the assay on PC-3 it was 0.807 µM (active). Also, the GI50 in the assay with IGROV-1 was 0.467 µM (active); with NCI-H460, 0.76 µM (active); in the assay on HOP-92, 2.14 µM (inactive); in the assay on K562, 0.522 µM (active); in the assay with MDA-MB-435, 0.198 µM (active); in the assay with HL-60, 0.435 µM (active). The GI50 in the assay with OVCAR-5 was 2.55 µM (inactive).
Consider `O=C(NC12CC3CC(CC(C3)C1)C2)n1cnc2c(Cl)ncnc21`, for which the GI50 in the assay with SNB-19 is > 100 µM (inactive); in the assay with Hs-578T, 32.3 µM (inactive); with HT-29 it was 27 µM (inactive); in the assay on OVCAR-8, 26 µM (inactive); in the assay with SK-MEL-5 it was 24.2 µM (inactive); with RXF 393 it was 35.2 µM (inactive). In addition, the GI50 with UO-31 was > 100 µM (inactive); in the assay on RPMI-8226, 40.7 µM (inactive); in the assay with T47D, > 100 µM (inactive); with HCT-116, 37.8 µM (inactive); with NCI-H23, 22.7 µM (inactive); in the assay on PC-3 it was 26.4 µM (inactive). In addition, the GI50 is 18.5 µM (inactive) in the assay on IGROV-1; 28 µM (inactive) with NCI-H460; 34.2 µM (inactive) in the assay on HOP-92; 25.8 µM (inactive) in the assay with K562; 19.1 µM (inactive) in the assay on MDA-MB-435; 3.28 µM (inactive) in the assay on HL-60. Moreover, in the assay on OVCAR-5, the GI50 was > 100 µM (inactive).
On to `S=C(CSc1ccccc1)Nc1cccc2ccccc12`, for which the GI50 in the assay with SNB-19 was 76.9 µM (inactive); in the assay with Hs-578T, 77.1 µM (inactive); in the assay with HT-29 it was 43.1 µM (inactive); in the assay with OVCAR-8, 67 µM (inactive); in the assay on SK-MEL-5, 18.5 µM (inactive); with RXF 393, > 100 µM (inactive). The GI50 is 46.2 µM (inactive) in the assay with UO-31; 35.6 µM (inactive) in the assay with RPMI-8226; 40.3 µM (inactive) in the assay with T47D; 35 µM (inactive) with HCT-116; 41.4 µM (inactive) with NCI-H23; 35.6 µM (inactive) in the assay on PC-3. For the same compound, the GI50 was 72.8 µM (inactive) with IGROV-1; 29.9 µM (inactive) in the assay on NCI-H460; 56.2 µM (inactive) with HOP-92; 40.2 µM (inactive) with K562; 34.1 µM (inactive) in the assay with MDA-MB-435; 40.9 µM (inactive) with HL-60. Moreover, the GI50 in the assay on OVCAR-5 was 72.1 µM (inactive).
